# Data: ChEMBL document CHEMBL1201862, “PubChem BioAssay data set” (2004)
# Activity calls are given as the source filed them.
# Experiments:
# [1] = Luminescence-based cell-based high throughput dose response assay to identify activators of the DAF-12 from the parasite S. stercoralis (ssDAF-12).; assay type: functional
# [2] = target: T1, Oxysterols receptor LXR-beta (Homo sapiens, UniProt P55055); assay: LXR agonists, Gal4 luciferase reporter, dose response, counter-screen for ssDAF-12 agonist project, cell-based, luminescence, HEK293, S. stercoralis campaign (AID 720737); assay type: functional; details: read-out: IC50 (the source's name)
# T1 sequence (P55055 whole entry): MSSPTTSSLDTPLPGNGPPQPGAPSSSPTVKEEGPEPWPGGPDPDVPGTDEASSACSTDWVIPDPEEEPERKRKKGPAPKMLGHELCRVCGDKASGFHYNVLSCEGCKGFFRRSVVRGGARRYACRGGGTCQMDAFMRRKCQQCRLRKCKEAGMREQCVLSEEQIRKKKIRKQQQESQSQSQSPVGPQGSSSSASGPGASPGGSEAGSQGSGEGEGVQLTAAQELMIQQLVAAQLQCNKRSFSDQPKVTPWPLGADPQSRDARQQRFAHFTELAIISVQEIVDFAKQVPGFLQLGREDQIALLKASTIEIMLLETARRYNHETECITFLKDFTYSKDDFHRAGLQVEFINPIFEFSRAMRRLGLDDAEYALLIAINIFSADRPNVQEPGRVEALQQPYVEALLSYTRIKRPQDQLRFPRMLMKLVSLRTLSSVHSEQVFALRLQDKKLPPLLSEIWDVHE
# [3] = target: Potassium channel subfamily K member 3 (Homo sapiens, UniProt O14649); assay: inhibition of human KCNK3 channel flux – CHO cells, FluxOR thallium flux, SAR follow-up (AID 652212); assay type: functional
# [4] = COV434 cell viability loss – plate reader, dry powder, SA7, cytotoxicity control for PAX8 inhibitor project, dose response (AID 743145); assay type: functional, cell-based
# BJ [5] = assay: BJ-TERT fibroblast viability loss – cell-based, RAS-independent, luminescence, dose response (AID 1933); assay type: functional; details: Homo sapiens
# [6] = reduction of Shn3 3'UTR-driven luciferase in osteoblasts – cell-based, Clone20 osteoblasts, firefly luciferase, cherry-picked, dose response (AID 624132); assay type: functional;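 further: firefly luciferase luminescence from reporter carrying the Shn3 3'UTR in osteoblasts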
# BJ [7] = assay: BJ-TERT-LT-ST fibroblast viability loss – cell-based, RAS-independent, luminescence, dose response (AID 1935); assay type: functional; details: Homo sapiens;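 further: BJ fibroblasts immortalized with TERT plus LT and ST oncogenes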
# [8] = toxicity toward immortalized ovarian surface epithelium – cell-based, plate reader, dry powder samples, cytotoxicity control for PAX8 inhibitor project, dose response (AID 743045); assay type: functional
# [9] = target: T2, Heat shock factor protein 1 (Mus musculus, UniProt P38532); assay: decrease of HSF1-responsive luciferase luminescence – cell-based, NIH3T3, dose retest, confirmation (AID 2382); assay type: functional;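 further: NIH3T3 fibroblasts with HSF1-driven luciferase reporter stressed by proteasome inhibitor MG132; luminescence from HSF1-driven luciferase expression after 8 hours of MG132 stress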
# T2 sequence (P38532 whole entry): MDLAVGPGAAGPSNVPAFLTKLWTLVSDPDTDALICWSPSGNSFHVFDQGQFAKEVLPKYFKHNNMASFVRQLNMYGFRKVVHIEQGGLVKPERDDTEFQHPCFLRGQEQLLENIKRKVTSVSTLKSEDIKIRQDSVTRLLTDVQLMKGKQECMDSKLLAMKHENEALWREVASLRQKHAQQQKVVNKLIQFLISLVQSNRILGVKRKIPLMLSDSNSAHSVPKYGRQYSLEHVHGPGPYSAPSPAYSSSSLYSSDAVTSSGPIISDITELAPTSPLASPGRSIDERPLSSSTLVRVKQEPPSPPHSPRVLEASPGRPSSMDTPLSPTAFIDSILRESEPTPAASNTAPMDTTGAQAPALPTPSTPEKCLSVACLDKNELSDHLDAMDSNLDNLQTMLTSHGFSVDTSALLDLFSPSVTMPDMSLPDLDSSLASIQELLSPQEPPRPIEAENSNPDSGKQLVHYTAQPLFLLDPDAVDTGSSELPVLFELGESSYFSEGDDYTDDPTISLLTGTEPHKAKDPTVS
# [10] = OVCAR4 cell viability loss – plate reader, dry powder, SA11, cytotoxicity control for PAX8 inhibitor project, dose response (AID 743150); assay type: functional, cell-based; details: OVCAR-4
# [11] = OVCAR-3 cell viability loss – plate reader, dry powder samples, PAX8 inhibitor project, dose response (AID 743044); assay type: functional, cell-based
# BJ [12] = assay: growth inhibition of engineered Ras-driven BJ cells – cell-based, alamar blue fluorescence, cherrypicked samples, dose response (AID 2631); assay type: functional; details: Homo sapiens;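 further: confirmatory dose-response assay in RAS-dependent BJ fibroblasts engineered with TERT, LT and ST, with cytotoxicity read by fluorescence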
# [13] = OV-90 cell viability loss – plate reader, dry powder, SA8, PAX8 inhibitor project, dose response (AID 743149); assay type: functional, cell-based
# BJ [14] = assay: cells; assay type: functional, cell-based; details: Homo sapiens
# [15] = non-specific 3'UTR reporter inhibition in Clone20-Shn3RL – cell-based, Renilla luciferase, cherry-picked, counter-screen for Shn3 inhibitor project, dose response (AID 624133); assay type: functional
# [16] = PAX8-dependent cell viability loss – plate reader, dry powder, dose response (AID 743049); assay type: functional, cell-based
# [17] = PAX5 cellular inhibition readout – cell-based, plate reader, dry powder samples, selectivity assay for PAX8 inhibitor project, dose response (AID 743047); assay type: functional;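 further: HEK293 cells carrying a Pax5 driven CD19 promoter luciferase reporter; potency of inhibitors that lower reporter luminescence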
# [18] = IGROV1 cell killing – plate reader, dry powder samples, PAX8 inhibitor project, dose response (AID 743043); assay type: functional, cell-based; details: IGROV-1
# [19] = COV362 cell viability loss – plate reader, dry powder, SA12, cytotoxicity control for PAX8 inhibitor project, dose response (AID 743144); assay type: functional, cell-based
# [20] = inhibitors acting on PAX2 in cells – cell-based, plate reader, dry powder samples, selectivity assay for PAX8 inhibitor project, dose response (AID 743048); assay type: functional;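 further: HEK293 cells carrying a WT1 promoter luciferase reporter driven by expressed Pax2; potency is for inhibition of Pax2 driven reporter signal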
# Paired box protein Pax-8 = Paired box protein Pax-8 (Homo sapiens, UniProt Q06710); assay: PAX8 transcriptional activity inhibition in RMG-I – RMG-I cells, luciferase, cherry-pick, dose response (AID 687027); assay type: functional, cell-based;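 further: luciferase reporter driven by Pax8 target thyroperoxidase promoter measured by SteadyGlo luminescence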
# [21] = A2780 cell killing – plate reader, dry powder samples, cytotoxicity control, dose response (AID 743046); assay type: functional, cell-based
# [22] = HEK-293T viability loss after treatment – luminescence, T-cell screen hits, cytotoxicity control for TCR NF-kB inhibitor project, dose response (AID 489026); assay type: functional, cell-based;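 further: cells exposed to compound about 14 hours before the viability readout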
# [23] = DRD fibroblast viability loss – cell-based, non-viral oncogenic, luminescence, dose response (AID 1934); assay type: functional; details: Homo sapiens
# [24] = target: 1-phosphatidylinositol 4,5-bisphosphate phosphodiesterase gamma-1 (Homo sapiens, UniProt P19174); assay: Counterscreen for inhibitors of phospholipase C isozymes (PLC-B3): Fluorescence-based biochemical high throughput dose response assay to identify inhibitors of phospholipase C isozymes (PLC-gamma1).
# [25] = target: 1-phosphatidylinositol 4,5-bisphosphate phosphodiesterase beta-3 (Homo sapiens, UniProt Q01970); assay: Fluorescence-based biochemical high throughput dose response assay to identify inhibitors of phospholipase C isozymes (PLC-B3).
# Kallikrein-7 = Kallikrein-7 (Homo sapiens, UniProt P49862); assay: Fluorescence Intensity-based biochemical primary high throughput dose response assay to identify activators of kallikrein-7 (K7) zymogen.
# [26] = Late stage assay provider results from the probe development effort to identify inhibitors of the Plasmodium falciparum M18 Aspartyl Aminopeptidase (M18AAP): radiolabel-based cell-based dose response assay to identify compounds that inhibit P. falciparum growth in RBCs, Set 2..; assay type: functional
# Chain of Paired box protein Pax-8 (Q06710 whole entry): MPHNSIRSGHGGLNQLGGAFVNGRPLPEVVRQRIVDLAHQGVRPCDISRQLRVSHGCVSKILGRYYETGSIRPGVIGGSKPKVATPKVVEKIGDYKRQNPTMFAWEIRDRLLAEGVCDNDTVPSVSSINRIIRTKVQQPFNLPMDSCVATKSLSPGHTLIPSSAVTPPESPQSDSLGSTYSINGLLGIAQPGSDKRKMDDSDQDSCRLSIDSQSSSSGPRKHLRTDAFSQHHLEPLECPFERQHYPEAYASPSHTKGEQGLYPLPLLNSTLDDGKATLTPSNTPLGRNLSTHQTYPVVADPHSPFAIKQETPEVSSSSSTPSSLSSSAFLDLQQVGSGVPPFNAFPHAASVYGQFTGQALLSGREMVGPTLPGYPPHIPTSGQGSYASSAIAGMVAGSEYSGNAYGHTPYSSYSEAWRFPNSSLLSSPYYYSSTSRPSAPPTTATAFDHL
# Chain of Potassium channel subfamily K member 3 (O14649 whole entry): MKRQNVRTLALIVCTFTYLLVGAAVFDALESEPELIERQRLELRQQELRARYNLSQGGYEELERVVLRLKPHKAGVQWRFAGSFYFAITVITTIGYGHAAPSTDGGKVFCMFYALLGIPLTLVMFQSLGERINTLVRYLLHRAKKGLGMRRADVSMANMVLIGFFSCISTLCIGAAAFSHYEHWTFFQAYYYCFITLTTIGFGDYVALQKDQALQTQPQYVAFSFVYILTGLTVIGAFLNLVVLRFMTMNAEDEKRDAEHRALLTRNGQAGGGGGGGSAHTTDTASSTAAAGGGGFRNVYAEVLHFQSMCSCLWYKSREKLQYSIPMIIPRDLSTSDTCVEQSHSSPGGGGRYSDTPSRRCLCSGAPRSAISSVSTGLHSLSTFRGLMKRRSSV
# Chain of Kallikrein-7 (P49862 whole entry): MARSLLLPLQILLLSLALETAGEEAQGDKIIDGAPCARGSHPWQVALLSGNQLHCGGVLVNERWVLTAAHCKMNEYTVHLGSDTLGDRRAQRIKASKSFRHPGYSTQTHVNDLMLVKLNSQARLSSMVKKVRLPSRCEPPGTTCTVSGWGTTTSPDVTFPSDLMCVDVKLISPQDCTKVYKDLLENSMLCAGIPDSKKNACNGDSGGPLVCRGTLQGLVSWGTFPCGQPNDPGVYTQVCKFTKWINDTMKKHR
# Chain of 1-phosphatidylinositol 4,5-bisphosphate phosphodiesterase beta-3 (Q01970 whole entry): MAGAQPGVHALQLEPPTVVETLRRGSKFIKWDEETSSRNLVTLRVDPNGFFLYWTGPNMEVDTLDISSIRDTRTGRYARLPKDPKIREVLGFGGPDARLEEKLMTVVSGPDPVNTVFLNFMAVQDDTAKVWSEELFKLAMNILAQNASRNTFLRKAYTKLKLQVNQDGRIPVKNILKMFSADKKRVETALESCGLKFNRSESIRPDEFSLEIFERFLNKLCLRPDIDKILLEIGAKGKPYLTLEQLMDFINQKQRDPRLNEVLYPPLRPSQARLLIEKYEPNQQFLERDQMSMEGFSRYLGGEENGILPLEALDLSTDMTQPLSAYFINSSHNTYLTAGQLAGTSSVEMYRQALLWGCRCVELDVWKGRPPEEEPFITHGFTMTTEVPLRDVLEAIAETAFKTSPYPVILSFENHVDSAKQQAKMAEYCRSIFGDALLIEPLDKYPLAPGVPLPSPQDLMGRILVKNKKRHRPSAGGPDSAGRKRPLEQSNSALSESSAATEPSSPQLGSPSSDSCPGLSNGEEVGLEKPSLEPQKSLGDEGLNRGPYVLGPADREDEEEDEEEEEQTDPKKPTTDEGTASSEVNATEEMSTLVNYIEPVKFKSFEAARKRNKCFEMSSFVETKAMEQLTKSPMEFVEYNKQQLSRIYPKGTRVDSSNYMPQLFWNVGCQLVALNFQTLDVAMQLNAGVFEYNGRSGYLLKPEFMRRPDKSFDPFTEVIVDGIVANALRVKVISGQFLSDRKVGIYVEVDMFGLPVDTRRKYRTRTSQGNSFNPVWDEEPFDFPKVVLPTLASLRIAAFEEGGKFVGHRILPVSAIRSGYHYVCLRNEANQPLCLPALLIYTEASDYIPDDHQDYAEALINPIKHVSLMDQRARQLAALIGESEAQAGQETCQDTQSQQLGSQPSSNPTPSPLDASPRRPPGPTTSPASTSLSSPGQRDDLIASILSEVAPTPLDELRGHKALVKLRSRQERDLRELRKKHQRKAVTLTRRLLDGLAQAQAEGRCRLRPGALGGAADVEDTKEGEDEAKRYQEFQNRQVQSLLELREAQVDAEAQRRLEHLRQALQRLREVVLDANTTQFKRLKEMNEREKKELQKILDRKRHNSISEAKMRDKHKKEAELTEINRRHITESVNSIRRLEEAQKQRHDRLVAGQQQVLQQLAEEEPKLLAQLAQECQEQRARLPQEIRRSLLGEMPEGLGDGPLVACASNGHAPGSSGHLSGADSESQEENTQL
# Chain of 1-phosphatidylinositol 4,5-bisphosphate phosphodiesterase gamma-1 (P19174 whole entry): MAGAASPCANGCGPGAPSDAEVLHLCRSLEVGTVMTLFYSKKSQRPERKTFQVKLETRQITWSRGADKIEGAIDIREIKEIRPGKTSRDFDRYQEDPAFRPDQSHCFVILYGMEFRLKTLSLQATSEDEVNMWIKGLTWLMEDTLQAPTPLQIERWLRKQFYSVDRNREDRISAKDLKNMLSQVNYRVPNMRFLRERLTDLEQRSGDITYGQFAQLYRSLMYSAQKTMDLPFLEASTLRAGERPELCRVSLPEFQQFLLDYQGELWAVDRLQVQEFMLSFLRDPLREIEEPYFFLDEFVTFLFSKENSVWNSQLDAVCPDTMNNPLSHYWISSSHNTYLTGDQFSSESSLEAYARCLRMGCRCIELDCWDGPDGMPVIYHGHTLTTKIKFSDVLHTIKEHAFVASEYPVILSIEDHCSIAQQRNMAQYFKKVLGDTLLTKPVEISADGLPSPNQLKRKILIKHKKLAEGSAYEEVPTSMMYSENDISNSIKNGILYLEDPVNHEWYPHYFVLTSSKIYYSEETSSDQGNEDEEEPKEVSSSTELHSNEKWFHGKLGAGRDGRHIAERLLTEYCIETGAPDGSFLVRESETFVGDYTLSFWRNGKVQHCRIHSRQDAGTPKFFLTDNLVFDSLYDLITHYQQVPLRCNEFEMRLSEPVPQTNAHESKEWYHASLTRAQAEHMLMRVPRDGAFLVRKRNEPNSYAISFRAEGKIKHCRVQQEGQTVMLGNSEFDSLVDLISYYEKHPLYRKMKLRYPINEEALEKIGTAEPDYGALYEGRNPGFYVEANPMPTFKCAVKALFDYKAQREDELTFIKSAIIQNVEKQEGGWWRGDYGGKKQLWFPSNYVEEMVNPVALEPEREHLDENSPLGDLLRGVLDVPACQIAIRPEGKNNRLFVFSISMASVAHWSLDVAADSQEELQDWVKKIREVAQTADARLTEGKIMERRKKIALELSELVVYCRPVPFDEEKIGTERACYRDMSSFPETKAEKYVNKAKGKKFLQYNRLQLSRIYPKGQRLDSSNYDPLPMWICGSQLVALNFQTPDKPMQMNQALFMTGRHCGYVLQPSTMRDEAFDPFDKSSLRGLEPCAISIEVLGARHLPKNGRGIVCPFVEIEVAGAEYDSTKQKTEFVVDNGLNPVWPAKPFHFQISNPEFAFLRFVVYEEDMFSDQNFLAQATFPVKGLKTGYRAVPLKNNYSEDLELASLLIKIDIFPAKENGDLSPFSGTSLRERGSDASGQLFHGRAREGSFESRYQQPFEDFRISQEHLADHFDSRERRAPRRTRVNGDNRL
compound,measurement,setting,value
COc1ccc(-c2noc(CCC(=O)N3CCC(c4cc(C)ccc4C)CC3)n2)cc1,IC50,[1],> 67500 nM (inactive)
same,EC50,[2],> 67500 nM (inactive)
CCOc1ccccc1NC(=O)c1cccc(NC(=O)C2CCOC2)c1 (stereo not drawn),IC50,[3],1330 nM (active)
COc1ccc(C)cc1NS(=O)(=O)c1ccc(-c2cnc(C3CC3)o2)cc1,AC50,[4],337 nM (active)
same,EC50,BJ [5],208 nM (active)
same,AC50,[6],3760 nM (active)
same,EC50,BJ [7],11100 nM (inconclusive)
same,AC50,[8],217 nM (active)
same,EC50,[9],430 nM (active)
same,AC50,[10],199 nM (active)
same,AC50,[11],1770 nM (active)
same,EC50,BJ [12],< 104 nM (active)
same,AC50,[13],612 nM (active)
same,EC50,BJ [14],990 nM (active)
same,AC50,[15],6580 nM (active)
same,AC50,[16],5690 nM (active)
same,AC50,[17],1830 nM (active)
same,AC50,[18],1490 nM (active)
same,AC50,[19],118 nM (active)
same,AC50,[20],8910 nM (active)
same,AC50,Paired box protein Pax-8,734 nM (active)
same,AC50,[21],3450 nM (active)
same,IC50,[22],> 80000 nM (inactive)
same,EC50,[23],388 nM (active)
CCCCn1c(=O)n(CC(=O)Nc2ccc(OC)c(Cl)c2)c(=O)c2c1nc(CO)n2CCC,IC50,[24],> 123000 nM (inactive)
same,IC50,[25],> 123000 nM (inactive)
COc1cccc(CN2CC(C(=O)NCCc3cn4cccnc4n3)CCC2=O)c1 (stereo not drawn),EC50,Kallikrein-7,23900 nM (inactive)
COc1ccc(CCNc2c3ccccc3nc3ccccc23)cc1,IC50,[26],1100 nM (active)
